Experimental data published in US6339042B1, “Herbicidal N-cyclohexadienyl heteroaryloxyacetamides” (American Cyanamid Co., priority 1999, dated 2002).

Assays:
Conditions in all cases: three weeks after treatment
Hordeum vulgare [1] = experiment: Post-emergence herbicidal evaluation, HORVW
Experimental: (§2) Each pot is examined three weeks after treatment and phytotoxicity is assessed according to the rating system set forth below.
(§3) These acetone solutions are diluted with water and the resulting formulations applied at dosage levels equivalent of about 0.4 to 0.1 kg per hectare of test compound per pot. After spraying the plants are placed on greenhouse benches and are cared for in the usual manner, commensurate with conventional greenhouse practices.

Galium aparine [2] = experiment: Pre-emergence herbicidal evaluation, GALAP; format: in vivo
From the text: (§1) The treated pots are then placed on greenhouse benches, watered and cared for in accordance with conventional greenhouse procedures.

Lolium perenne [3] = experiment: Post-emergence herbicidal evaluation, LOLPE
Alopecurus myosuroides [4] = experiment: Pre-emergence herbicidal evaluation, ALOMY; format: in vivo
From the text: as §1

Echinochloa crus-galli [5] = experiment: Post-emergence herbicidal evaluation, ECHCG
Experimental: (§4) The compounds of the invention are tested for pre- and post-emergence herbicidal activity.
as §2, §3

Triticum aestivum [6] = experiment: Post-emergence herbicidal evaluation, TRZAW
Oryza sativum [7] = experiment: Post-emergence herbicidal evaluation, ORYSA
Oryza sativum [8] = experiment: Pre-emergence herbicidal evaluation, ORYSA; format: in vivo
From the text: as §1

Glycine max [9] = experiment: Pre-emergence herbicidal evaluation, GLXMA; format: in vivo
From the text: as §1

Zea mays [10] = experiment: Pre-emergence herbicidal evaluation, ZEAMX; format: in vivo
From the text: as §1

Triticum aestivum [11] = experiment: Pre-emergence herbicidal evaluation, TRZAW; format: in vivo
From the text: as §1

Apera spica venti [12] = experiment: Pre-emergence herbicidal evaluation, APESV; format: in vivo
From the text: as §1

Glycine max [13] = experiment: Post-emergence herbicidal evaluation, GLXMA
Amaranthus tuberculatus [14] = experiment: Post-emergence herbicidal evaluation, AMATA; format: in vivo
Lolium perenne [15] = experiment: Pre-emergence herbicidal evaluation, LOLPE; format: in vivo
From the text: as §1

Alopecurus myosuroides [16] = experiment: Post-emergence herbicidal evaluation, ALOMY
Experimental: as §4, §2, §3

Apera spica venti [17] = experiment: Post-emergence herbicidal evaluation, APESV
Experimental: as §4, §2, §3

Amaranthus tuberculatus [18] = experiment: Pre-emergence herbicidal evaluation, AMATA; format: in vivo
From the text: as §1

Echinochloa crus-galli [19] = experiment: Pre-emergence herbicidal evaluation, ECHCG; format: in vivo
From the text: as §1

Zea mays [20] = experiment: Post-emergence herbicidal evaluation, ZEAMX
Galium aparine [21] = experiment: Post-emergence herbicidal evaluation, GALAP
Experimental: as §4, §2, §3

Hordeum vulgare [22] = experiment: Pre-emergence herbicidal evaluation, HORVW; format: in vivo
From the text: as §1

Setaria viridis [23] = experiment: Pre-emergence herbicidal evaluation, SETVI; format: in vivo
From the text: as §1

Setaria viridis [24] = experiment: Post-emergence herbicidal evaluation, SETVI

CCN(C(=O)COc1nc2ccccc2o1)C1=CC(C)(C)CC(C)=C1 [Example 2]
phytotoxicity rating HORVW (Hordeum vulgare [1]; 0.100 kg/ha): 1 (1 - Trace effect) | phytotoxicity rating HORVW (Hordeum vulgare [1]; 0.200 kg/ha): 2 (2 - Slight effect) | phytotoxicity rating HORVW (Hordeum vulgare [1]; 0.400 kg/ha): 2 (2 - Slight effect) | phytotoxicity rating GALAP (Galium aparine [2]; 0.100 kg/ha): 0 (0 - No effect) | phytotoxicity rating GALAP (Galium aparine [2]; 0.200 kg/ha): 0 (0 - No effect) | phytotoxicity rating GALAP (Galium aparine [2]; 0.400 kg/ha): 0 (0 - No effect) | phytotoxicity rating GALAP (Galium aparine [2]; 0.800 kg/ha): 0 (0 - No effect) | phytotoxicity rating LOLPE (Lolium perenne [3]; 0.100 kg/ha): 5 (5 - Definite injury) | phytotoxicity rating LOLPE (Lolium perenne [3]; 0.200 kg/ha): 7 (7 - Good herbicidal effect) | phytotoxicity rating LOLPE (Lolium perenne [3]; 0.400 kg/ha): 8 (8 - Approaching complete kill) | phytotoxicity rating ALOMY (Alopecurus myosuroides [4]; 0.100 kg/ha): 1 (1 - Trace effect) | phytotoxicity rating ALOMY (Alopecurus myosuroides [4]; 0.200 kg/ha): 5 (5 - Definite injury) | phytotoxicity rating ALOMY (Alopecurus myosuroides [4]; 0.400 kg/ha): 6 (6 - Herbicidal effect) | phytotoxicity rating ALOMY (Alopecurus myosuroides [4]; 0.800 kg/ha): 6 (6 - Herbicidal effect) | phytotoxicity rating ECHCG (Echinochloa crus-galli [5]; 0.100 kg/ha): 1 (1 - Trace effect) | phytotoxicity rating ECHCG (Echinochloa crus-galli [5]; 0.200 kg/ha): 2 (2 - Slight effect) | phytotoxicity rating ECHCG (Echinochloa crus-galli [5]; 0.400 kg/ha): 8 (8 - Approaching complete kill) | phytotoxicity rating TRZAW (Triticum aestivum [6]; 0.100 kg/ha): 0 (0 - No effect) | phytotoxicity rating TRZAW (Triticum aestivum [6]; 0.200 kg/ha): 0 (0 - No effect) | phytotoxicity rating TRZAW (Triticum aestivum [6]; 0.400 kg/ha): 1 (1 - Trace effect) | phytotoxicity rating ORYSA (Oryza sativum [7]; 0.100 kg/ha): 0 (0 - No effect) | phytotoxicity rating ORYSA (Oryza sativum [7]; 0.200 kg/ha): 0 (0 - No effect) | phytotoxicity rating ORYSA (Oryza sativum [7]; 0.400 kg/ha): 1 (1 - Trace effect) | phytotoxicity rating ORYSA (Oryza sativum [8]; 0.100 kg/ha): 0 (0 - No effect) | phytotoxicity rating ORYSA (Oryza sativum [8]; 0.200 kg/ha): 0 (0 - No effect) | phytotoxicity rating ORYSA (Oryza sativum [8]; 0.400 kg/ha): 0 (0 - No effect) | phytotoxicity rating ORYSA (Oryza sativum [8]; 0.800 kg/ha): 2 (2 - Slight effect) | phytotoxicity rating GLXMA (Glycine max [9]; 0.100 kg/ha): 0 (0 - No effect) | phytotoxicity rating GLXMA (Glycine max [9]; 0.200 kg/ha): 0 (0 - No effect) | phytotoxicity rating GLXMA (Glycine max [9]; 0.400 kg/ha): 0 (0 - No effect) | phytotoxicity rating GLXMA (Glycine max [9]; 0.800 kg/ha): 0 (0 - No effect) | phytotoxicity rating ZEAMX (Zea mays [10]; 0.100 kg/ha): 0 (0 - No effect) | phytotoxicity rating ZEAMX (Zea mays [10]; 0.200 kg/ha): 0 (0 - No effect) | phytotoxicity rating ZEAMX (Zea mays [10]; 0.400 kg/ha): 0 (0 - No effect) | phytotoxicity rating ZEAMX (Zea mays [10]; 0.800 kg/ha): 1 (1 - Trace effect) | phytotoxicity rating TRZAW (Triticum aestivum [11]; 0.100 kg/ha): 0 (0 - No effect) | phytotoxicity rating TRZAW (Triticum aestivum [11]; 0.200 kg/ha): 0 (0 - No effect) | phytotoxicity rating TRZAW (Triticum aestivum [11]; 0.400 kg/ha): 2 (2 - Slight effect) | phytotoxicity rating TRZAW (Triticum aestivum [11]; 0.800 kg/ha): 2 (2 - Slight effect) | phytotoxicity rating APESV (Apera spica venti [12]; 0.100 kg/ha): 1 (1 - Trace effect) | phytotoxicity rating APESV (Apera spica venti [12]; 0.200 kg/ha): 6 (6 - Herbicidal effect) | phytotoxicity rating APESV (Apera spica venti [12]; 0.400 kg/ha): 9 (9 - Complete kill) | phytotoxicity rating APESV (Apera spica venti [12]; 0.800 kg/ha): 9 (9 - Complete kill) | phytotoxicity rating GLXMA (Glycine max [13]; 0.100 kg/ha): 5 (5 - Definite injury) | phytotoxicity rating GLXMA (Glycine max [13]; 0.200 kg/ha): 7 (7 - Good herbicidal effect) | phytotoxicity rating GLXMA (Glycine max [13]; 0.400 kg/ha): 7 (7 - Good herbicidal effect) | phytotoxicity rating AMATA (Amaranthus tuberculatus [14]; 0.100 kg/ha): 5 (5 - Definite injury) | phytotoxicity rating AMATA (Amaranthus tuberculatus [14]; 0.200 kg/ha): 6 (6 - Herbicidal effect) | phytotoxicity rating AMATA (Amaranthus tuberculatus [14]; 0.400 kg/ha): 6 (6 - Herbicidal effect) | phytotoxicity rating LOLPE (Lolium perenne [15]; 0.100 kg/ha): 0 (0 - No effect) | phytotoxicity rating LOLPE (Lolium perenne [15]; 0.200 kg/ha): 2 (2 - Slight effect) | phytotoxicity rating LOLPE (Lolium perenne [15]; 0.400 kg/ha): 8 (8 - Approaching complete kill) | phytotoxicity rating LOLPE (Lolium perenne [15]; 0.800 kg/ha): 9 (9 - Complete kill) | phytotoxicity rating ALOMY (Alopecurus myosuroides [16]; 0.100 kg/ha): 0 (0 - No effect) | phytotoxicity rating ALOMY (Alopecurus myosuroides [16]; 0.200 kg/ha): 4 (4 - Injury) | phytotoxicity rating ALOMY (Alopecurus myosuroides [16]; 0.400 kg/ha): 7 (7 - Good herbicidal effect) | phytotoxicity rating APESV (Apera spica venti [17]; 0.100 kg/ha): 6 (6 - Herbicidal effect) | phytotoxicity rating APESV (Apera spica venti [17]; 0.200 kg/ha): 7 (7 - Good herbicidal effect) | phytotoxicity rating APESV (Apera spica venti [17]; 0.400 kg/ha): 7 (7 - Good herbicidal effect) | phytotoxicity rating AMATA (Amaranthus tuberculatus [18]; 0.100 kg/ha): 2 (2 - Slight effect) | phytotoxicity rating AMATA (Amaranthus tuberculatus [18]; 0.200 kg/ha): 6 (6 - Herbicidal effect) | phytotoxicity rating AMATA (Amaranthus tuberculatus [18]; 0.400 kg/ha): 8 (8 - Approaching complete kill) | phytotoxicity rating AMATA (Amaranthus tuberculatus [18]; 0.800 kg/ha): 8 (8 - Approaching complete kill) | phytotoxicity rating ECHCG (Echinochloa crus-galli [19]; 0.100 kg/ha): 3 (3 - Moderate effect) | phytotoxicity rating ECHCG (Echinochloa crus-galli [19]; 0.200 kg/ha): 5 (5 - Definite injury) | phytotoxicity rating ECHCG (Echinochloa crus-galli [19]; 0.400 kg/ha): 8 (8 - Approaching complete kill) | phytotoxicity rating ECHCG (Echinochloa crus-galli [19]; 0.800 kg/ha): 9 (9 - Complete kill) | phytotoxicity rating ZEAMX (Zea mays [20]; 0.100 kg/ha): 0 (0 - No effect) | phytotoxicity rating ZEAMX (Zea mays [20]; 0.200 kg/ha): 0 (0 - No effect) | phytotoxicity rating ZEAMX (Zea mays [20]; 0.400 kg/ha): 0 (0 - No effect) | phytotoxicity rating GALAP (Galium aparine [21]; 0.100 kg/ha): 0 (0 - No effect) | phytotoxicity rating GALAP (Galium aparine [21]; 0.200 kg/ha): 2 (2 - Slight effect) | phytotoxicity rating GALAP (Galium aparine [21]; 0.400 kg/ha): 3 (3 - Moderate effect) | phytotoxicity rating HORVW (Hordeum vulgare [22]; 0.100 kg/ha): 0 (0 - No effect) | phytotoxicity rating HORVW (Hordeum vulgare [22]; 0.200 kg/ha): 2 (2 - Slight effect) | phytotoxicity rating HORVW (Hordeum vulgare [22]; 0.400 kg/ha): 2 (2 - Slight effect) | phytotoxicity rating HORVW (Hordeum vulgare [22]; 0.800 kg/ha): 3 (3 - Moderate effect) | phytotoxicity rating SETVI (Setaria viridis [23]; 0.100 kg/ha): 1 (1 - Trace effect) | phytotoxicity rating SETVI (Setaria viridis [23]; 0.200 kg/ha): 4 (4 - Injury) | phytotoxicity rating SETVI (Setaria viridis [23]; 0.400 kg/ha): 7 (7 - Good herbicidal effect) | phytotoxicity rating SETVI (Setaria viridis [23]; 0.800 kg/ha): 8 (8 - Approaching complete kill) | phytotoxicity rating SETVI (Setaria viridis [24]; 0.100 kg/ha): 0 (0 - No effect) | phytotoxicity rating SETVI (Setaria viridis [24]; 0.200 kg/ha): 2 (2 - Slight effect) | phytotoxicity rating SETVI (Setaria viridis [24]; 0.400 kg/ha): 6 (6 - Herbicidal effect)
